Patent US12138256B2, “Treatment of cardiopulmonary disorders” (Bayer Aktiengesellschaft, priority 2021, dated 2024)

Columns and labels:
plasma proteins [1] = test: Protein binding via Transil assay, rat plasma; assay type: in vitro ADME; settings: rat plasma
Source text: (§1) The distribution of a test substance between Transil® (phosphatidylcholine lipid bilayers immobilized on silica beads) and plasma is a characteristic feature of any pharmaceutical compound and is dependent on its extent of binding to plasma proteins. By comparing the distribution between Transil® and buffer with the distribution between Transil® and plasma of any species of interest, the unbound fraction in the plasma of the respective animal species can be calculated in vitro. The respective plasma and buffer concentrations were determined via a radioactivity analysis. A detailed description of the method and its validation was published by Schuhmacher et al. (2).

plasma proteins [2] = test: Protein binding via Transil assay, dog plasma; assay type: in vitro ADME; settings: dog plasma
Source text: as §1

## O=C(O)c1ccc(CCN(CCc2ccccc2OCc2ccc(-c3ccc(C(F)(F)F)cc3)cc2Cl)[C@H]2CCCc3nc(C(=O)O)ccc32)cc1 [comparative example 11, (5S)-5-{[2-(4-carboxyphenyl)ethyl][2-(2-{[3-chloro-4′-(trifluoromethyl)[biphenyl]-4-yl]methoxy}phenyl)ethyl]amino}-5,6,7,8-tetrahydroquinoline-2-carboxylic acid]
Plasma proteins [1]
  fraction unbound, times lower than comparative example 1: 1.6 times
Plasma proteins [2]
  fraction unbound, times lower than comparative example 1: 10 times
